Results: patent publication US10543212B2, “Substituted amines for treating cardiac diseases” (Cardurion Pharmaceuticals, LLC, priority 2017, dated 2020)
pIC50: −log10 of the molar value.

Molecular target: T1, Full-length, GST-tagged, human CaMKIIδ (Homo sapiens, UniProt Q13557)
T1 construct: Full-Length, Glutathione-S-Transferase(GST)-Tagged, Human CaMKIIδ was purchased from Carna Biosciences; purchased Carna Biosciences 02-111
Assay: CaMKIIδ binding assay (TR-FRET with BODIPY-labeled probe ligand)
Settings: CaMKIIδ binding assay, results of Table 2
Summary of the method: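 TR-FRET probe-displacement binding: 0.5 nM GST-CaMKIIδ with 10 μg/mL calmodulin, 1 mM CaCl2, 0.21 nM Tb-anti-GST Ab and 300 nM BODIPY probe in HEPES pH 7.6 buffer. Eight-point 4-fold dilutions, 1 hr at room temperature. IC50 from logistic fit; 100% inhibition defined by 3 μM parent compound.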

T1 sequence (Q13557 1-478 isoform Q13557-12): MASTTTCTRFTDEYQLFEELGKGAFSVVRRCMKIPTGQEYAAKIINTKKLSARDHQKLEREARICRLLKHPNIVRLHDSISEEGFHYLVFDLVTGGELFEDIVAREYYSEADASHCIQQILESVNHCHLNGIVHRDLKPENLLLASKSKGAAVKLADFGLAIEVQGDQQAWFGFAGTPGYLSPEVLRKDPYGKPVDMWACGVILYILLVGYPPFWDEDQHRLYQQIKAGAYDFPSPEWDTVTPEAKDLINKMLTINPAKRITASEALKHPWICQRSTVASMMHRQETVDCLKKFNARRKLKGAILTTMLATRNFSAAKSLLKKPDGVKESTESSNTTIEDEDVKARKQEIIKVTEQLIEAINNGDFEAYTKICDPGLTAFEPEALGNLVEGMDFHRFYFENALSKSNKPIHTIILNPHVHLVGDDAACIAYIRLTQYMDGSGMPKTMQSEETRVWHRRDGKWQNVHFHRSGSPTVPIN

Compound	pIC50
COc1ccc(N2CCN(C3COC3)CC2)cc1Nc1ncc(-c2ccc(Cl)c(O[C@@H](C)Cn3cnnn3)c2)cn1 [Example 576, (S)-5-(3-((1-(1H-tetrazol-1-yl)propan-2-yl)oxy)-4-chlorophenyl)-N-(2-methoxy-5-(4-(oxetan-3-yl)piperazin-1-yl)phenyl)pyrimidin-2-amine]	7.00 to 8.00
COc1cc2c(cc1Nc1ncc(-c3ccc(Cl)c(O[C@@H](C)Cn4cnnn4)c3)cn1)CN(C(=O)C(F)(F)F)CC2 [Example 460, (S)-1-(7-((5-(3-((1-(1H-tetrazol-1-yl)propan-2-yl)oxy)-4-chlorophenyl)pyrimidin-2-yl)amino)-6-methoxy-3,4-dihydroisoquinolin-2(1H)-yl)-2,2,2-trifluoroethan-1-one]	≤ 7.00
COc1ccc(N2CCN(CC(N)=O)CC2)cc1Nc1ncc(-c2ccc(Cl)c(O[C@@H](C)Cn3cnnn3)c2)cn1 [Example 579, (S)-2-(4-(3-((5-(3-((1-(1H-tetrazol-1-yl)propan-2-yl)oxy)-4-chlorophenyl)pyrimidin-2-yl)amino)-4-methoxyphenyl)piperazin-1-yl)acetamide]	> 8.00

Same assay, conditions: CaMKIIδ binding assay; activity class per Table 2

Compound	pIC50
C[C@H](Cn1cnnn1)Oc1cc(-c2cnc(Nc3cn([C@H]4CC[C@H](N5CCOCC5)CC4)nc3C(F)(F)F)nc2)ccc1Cl [Example 893, 5-(3-(((R)-1-(1H-tetrazol-1-yl)propan-2-yl)oxy)-4-chlorophenyl)-N-(1-(trans-4-morpholinocyclohexyl)-3-(trifluoromethyl)-1H-pyrazol-4-yl)pyrimidin-2-amine]	7.00 to 8.00
C[C@@H](Cn1cnnn1)Oc1cc(-c2cnc(Nc3cn(C(C)(C)C(=O)O)nc3OCC(F)(F)F)nc2)ccc1Cl [Example 889, (S)-2-(4-((5-(3-((1-(1H-tetrazol-1-yl)propan-2-yl)oxy)-4-chlorophenyl)pyrimidin-2-yl)amino)-3-(2,2,2-trifluoroethoxy)-1H-pyrazol-1-yl)-2-methylpropanoic acid]	7.00 to 8.00
C[C@@H](Cn1cnnn1)Oc1cc(-c2cnc(Nc3cn(C4CC5(C4)CN(C4CCCOCC4)C5)nc3OCC(F)(F)F)nc2)ccc1Cl (stereo partly drawn) [Example 981, 5-(3-(((S)-1-(1H-tetrazol-1-yl)propan-2-yl)oxy)-4-chlorophenyl)-N-(1-(2-(oxepan-4-yl)-2-azaspiro[3.3]heptan-6-yl)-3-(2,2,2-trifluoroethoxy)-1H-pyrazol-4-yl)pyrimidin-2-amine]	> 8.00
CCn1ncc(Nc2ncc(-c3ccc(Cl)c(O[C@@H](C)Cn4cnnn4)c3)cn2)c1C(=O)N1CCC(N2CCOCC2)CC1 [Example 880, (S)-(4-((5-(3-((1-(1H-tetrazol-1-yl)propan-2-yl)oxy)-4-chlorophenyl)pyrimidin-2-yl)amino)-1-ethyl-1H-pyrazol-5-yl) (4-morpholinopiperidin-1-yl)methanone]	≤ 7.00
C[C@@H](Cn1cnnn1)Oc1cc(-c2cnc(Nc3cn(CC4(O)CCN(C(N)=O)CC4)nc3C(F)(F)F)nc2)ccc1Cl [Example 888, (S)-4-((4-((5-(3-((1-(1H-tetrazol-1-yl)propan-2-yl)oxy)-4-chlorophenyl)pyrimidin-2-yl)amino)-3-(trifluoromethyl)-1H-pyrazol-1-yl)methyl)-4-hydroxypiperidine-1-carboxamide]	> 8.00

Same assay, conditions: Table 2; CaMKIIδ binding assay, activity given as class A/B/C

Compound	pIC50
C[C@@H](Cn1cnnn1)Oc1cc(-c2cnc(Nc3cn(CC4(O)CCN(C(=O)OC(C)(C)C)CC4)nc3C(F)(F)F)nc2)ccc1Cl [Example 874, tert-butyl (S)-4-((4-((5-(3-((1-(1H-tetrazol-1-yl)propan-2-yl)oxy)-4-chlorophenyl)pyrimidin-2-yl)amino)-3-(trifluoromethyl)-1H-pyrazol-1-yl)methyl)-4-hydroxypiperidine-1-carboxylate]	7.00 to 8.00
C[C@@H](Cn1cnnn1)Oc1cc(-c2cnc(Nc3cn([C@H]4CC[C@H](N5CC(C)(O)C5)CC4)nc3C(F)(F)F)nc2)ccc1Cl [Example 804, 1-(trans-4-(4-((5-(3-(((S)-1-(1H-tetrazol-1-yl)propan-2-yl)oxy)-4-chlorophenyl)pyrimidin-2-yl)amino)-3-(trifluoromethyl)-1H-pyrazol-1-yl)cyclohexyl)-3-methylazetidin-3-ol]	> 8.00
C[C@@H](Cn1cnnn1)Oc1cc(-c2cnc(Nc3cn([C@@H]4C[C@H]5CC[C@@H](C4)N5C4CC4)nc3C(F)(F)F)nc2)ccc1Cl [Example 757, 5-(3-(((S)-1-(1H-tetrazol-1-yl)propan-2-yl)oxy)-4-chlorophenyl)-N-(1-((1R,3s,5S)-8-cyclopropyl-8-azabicyclo[3.2.1]octan-3-yl)-3-(trifluoromethyl)-1H-pyrazol-4-yl)pyrimidin-2-amine]	> 8.00
C[C@@H](Cn1cnnn1)Oc1cc(-c2cnc(Nc3cn(C4CCN(C5CCOCC5)CC4)nc3OCC(F)(F)F)nc2)ccc1C#N [Example 790, (S)-2-((1-(1H-tetrazol-1-yl)propan-2-yl)oxy)-4-(2-((1-(1-(tetrahydro-2H-pyran-4-yl)piperidin-4-yl)-3-(2,2,2-trifluoroethoxy)-1H-pyrazol-4-yl)amino)pyrimidin-5-yl)benzonitrile]	> 8.00
C[C@@H](Cn1cccn1)Oc1cc(-c2cnc(Nc3cn(C4CCN(C5CCOCC5)CC4)nc3OCC(F)(F)F)nc2)ccc1C#N [Example 782, (S)-2-((1-(1H-pyrazol-1-yl)propan-2-yl)oxy)-4-(2-((1-(1-(tetrahydro-2H-pyran-4-yl)piperidin-4-yl)-3-(2,2,2-trifluoroethoxy)-1H-pyrazol-4-yl)amino)pyrimidin-5-yl)benzonitrile]	> 8.00
C[C@@H](Cn1cnnn1)Oc1cc(-c2cnc(Nc3cn([C@H]4CC[C@H](N5CC(O)(C(F)(F)F)C5)CC4)nc3C(F)(F)F)nc2)ccc1Cl [Example 857, 1-(trans-4-(4-((5-(3-(((S)-1-(1H-tetrazol-1-yl)propan-2-yl)oxy)-4-chlorophenyl)pyrimidin-2-yl)amino)-3-(trifluoromethyl)-1H-pyrazol-1-yl)cyclohexyl)-3-(trifluoromethyl)azetidin-3-ol]	> 8.00
C[C@@H](Cn1cnnn1)Oc1cc(-c2cnc(Nc3cn([C@H]4CC[C@@H](N5CCOCC5)CC4)nc3OC3COC3)nc2)ccc1Cl [Example 820, 5-(3-(((S)-1-(1H-tetrazol-1-yl)propan-2-yl)oxy)-4-chlorophenyl)-N-(1-(cis-4-morpholinocyclohexyl)-3-(oxetan-3-yloxy)-1H-pyrazol-4-yl)pyrimidin-2-amine]	> 8.00

Same assay, conditions: Table 2; activity class for CaMKIIδ

Compound	pIC50
COc1nc(N2CCCN(C3CCOCC3)CC2)ccc1Nc1ncc(-c2ccc(Cl)c(O[C@@H](C)Cn3cnnn3)c2)cn1 [Example 667, (S)-5-(3-((1-(1H-tetrazol-1-yl)propan-2-yl)oxy)-4-chlorophenyl)-N-(2-methoxy-6-(4-(tetrahydro-2H-pyran-4-yl)-1,4-diazepan-1-yl)pyridin-3-yl)pyrimidin-2-amine]	> 8.00
C#CCn1cc(Nc2ncc(-c3ccc(Cl)c(O[C@@H](C)Cn4cnnn4)c3)cn2)c(C(F)(F)F)n1 [Example 726, (S)-5-(3-((1-(1H-tetrazol-1-yl)propan-2-yl)oxy)-4-chlorophenyl)-N-(1-(prop-2-yn-1-yl)-3-(trifluoromethyl)-1H-pyrazol-4-yl)pyrimidin-2-amine]	7.00 to 8.00
C[C@@H](Cn1cnnn1)Oc1cc(-c2cnc(Nc3cn(CC4CN(C5COC5)C4)nc3C(F)(F)F)nc2)ccc1Cl [Example 598, (S)-5-(3-((1-(1H-tetrazol-1-yl)propan-2-yl)oxy)-4-chlorophenyl)-N-(1-((1-(oxetan-3-yl)azetidin-3-yl)methyl)-3-(trifluoromethyl)-1H-pyrazol-4-yl)pyrimidin-2-amine]	> 8.00
COc1nn(C2CCNCC2)cc1Nc1ncc(-c2ccc(Cl)c(O[C@@H](C)Cn3cnnn3)c2)cn1 [Example 657, (S)-5-(3-((1-(1H-tetrazol-1-yl)propan-2-yl)oxy)-4-chlorophenyl)-N-(3-methoxy-1-(piperidin-4-yl)-1H-pyrazol-4-yl)pyrimidin-2-amine]	> 8.00
C[C@@H](Cn1cnnn1)Oc1cc(-c2cnc(Nc3cn(C4CCN(C(=O)OC(C)(C)C)CC4)nc3OCC(F)(F)F)nc2)ccc1Cl [Example 675, tert-butyl (S)-4-(4-((5-(3-((1-(1H-tetrazol-1-yl)propan-2-yl)oxy)-4-chlorophenyl)pyrimidin-2-yl)amino)-3-(2,2,2-trifluoroethoxy)-1H-pyrazol-1-yl)piperidine-1-carboxylate]	7.00 to 8.00
COc1cc(N2CCN(CC3COC3)CC2)cnc1Nc1ncc(-c2ccc(Cl)c(O[C@@H](C)Cn3cnnn3)c2)cn1 [Example 648, (S)-5-(3-((1-(1H-tetrazol-1-yl)propan-2-yl)oxy)-4-chlorophenyl)-N-(3-methoxy-5-(4-(oxetan-3-ylmethyl)piperazin-1-yl)pyridin-2-yl)pyrimidin-2-amine]	7.00 to 8.00
C[C@@H](Cn1cnnn1)Oc1cc(-c2cnc(Nc3cn(C4C[C@@H]5CC[C@H]4C5)nc3C(F)(F)F)nc2)ccc1Cl (stereo partly drawn) [Example 717, 5-(3-(((S)-1-(1H-tetrazol-1-yl)propan-2-yl)oxy)-4-chlorophenyl)-N-(1-((1S,4R)-bicyclo[2.2.1]heptan-2-yl)-3-(trifluoromethyl)-1H-pyrazol-4-yl)pyrimidin-2-amine]	≤ 7.00
COc1cc(N2CCN(C3CCOCC3)C[C@@H]2C)ccc1Nc1ncc(-c2ccc(Cl)c(O[C@@H](C)Cn3cnnn3)c2)cn1 [Example 654, 5-(3-(((S)-1-(1H-tetrazol-1-yl)propan-2-yl)oxy)-4-chlorophenyl)-N-(2-methoxy-4-((S)-2-methyl-4-(tetrahydro-2H-pyran-4-yl)piperazin-1-yl)phenyl)pyrimidin-2-amine]	> 8.00
C[C@@H](Cn1cnnn1)Oc1cc(-c2cnc(Nc3cn(C4CCN(C5CCOCC5)CC4)nc3C#N)nc2)ccc1Cl [Example 592, (S)-4-((5-(3-((1-(1H-tetrazol-1-yl)propan-2-yl)oxy)-4-chlorophenyl)pyrimidin-2-yl)amino)-1-(1-(tetrahydro-2H-pyran-4-yl)piperidin-4-yl)-1H-pyrazole-3-carbonitrile]	> 8.00
